Experimental data published in EPA's ToxValDB 9.5.

System: Rattus norvegicus
Details: short-term, duration: 28 days, oral, gavage, Sprague-Dawley

O=C(O)C(F)(F)C(F)(F)C(F)(F)C(F)(F)C(F)(F)F [Perfluorohexanoic acid]
LOEL (F, Organ weights_Liver - Relative): 500 mg/kg-day
NOEL (F, Organ weights_R. adrenal gland - Absolute): 1000 mg/kg-day
NOEL (F, Organ weights_R. adrenal gland - Relative): 1000 mg/kg-day
LOEL (F, Organ weights_R. kidney - Absolute): 1000 mg/kg-day
LOEL (F, Organ weights_R. kidney - Relative): 1000 mg/kg-day
NOEL (F, Organ weights_Spleen - Absolute): 1000 mg/kg-day
NOEL (F, Organ weights_Spleen - Relative): 1000 mg/kg-day
NOEL (F, Organ weights_Thymus - Absolute): 1000 mg/kg-day
NOEL (F, Organ weights_Thymus - Relative): 1000 mg/kg-day
NOEL (F, Organ weights_Thyroid gland - Absolute): 1000 mg/kg-day
NOEL (F, Organ weights_Thyroid gland - Relative): 1000 mg/kg-day
NOEL (F, Survival rates): 1000 mg/kg-day
NOEL (F, body weight): 1000 mg/kg-day
LOEL (M, Clinical chemistry_Alanine aminotransferase): 500 mg/kg-day
LOEL (M, Clinical chemistry_Albumin): 125 mg/kg-day
LOEL (M, Clinical chemistry_Albumin/globulin ratio): 250 mg/kg-day
LOEL (M, Clinical chemistry_Alkaline phosphatase): 500 mg/kg-day
LOEL (M, Clinical chemistry_Aspartate aminotransferase): 500 mg/kg-day
LOEL (M, Clinical chemistry_Cholesterol): 62.6 mg/kg-day
NOEL (M, Clinical chemistry_Creatinine kinase): 1000 mg/kg-day
NOEL (M, Clinical chemistry_Direct bilirubin): 1000 mg/kg-day
LOEL (M, Clinical chemistry_Free thyroxine): 62.6 mg/kg-day
LOEL (M, Clinical chemistry_Globulin): 125 mg/kg-day
LOEL (M, Clinical chemistry_Sorbitol dehydrogenase): 1000 mg/kg-day
NOEL (M, Clinical chemistry_Testosterone): 1000 mg/kg-day
NOEL (M, Clinical chemistry_Thyroid stimulating hormone): 1000 mg/kg-day
LOEL (M, Clinical chemistry_Total bile acids): 1000 mg/kg-day
LOEL (M, Clinical chemistry_Total protein): 250 mg/kg-day
LOEL (M, Clinical chemistry_Total thyroxine): 62.6 mg/kg-day
LOEL (M, Clinical chemistry_Total_triiodothyronine): 62.6 mg/kg-day
NOEL (M, Clinical chemistry_Triglycerides): 1000 mg/kg-day
LOEL (M, Gene expression_Acox1): 500 mg/kg-day
LOEL (M, Gene expression_Acyl-CoA oxidase): 250 mg/kg-day
LOEL (M, Gene expression_Cyp2b1): 62.6 mg/kg-day
LOEL (M, Gene expression_Cyp2b2): 62.6 mg/kg-day
LOEL (M, Gene expression_Cyp4a1): 62.6 mg/kg-day
LOEL (M, Hematology_Erythrocytes): 62.6 mg/kg-day
LOEL (M, Hematology_Hematocrit): 62.6 mg/kg-day
LOEL (M, Hematology_Hemoglobin): 62.6 mg/kg-day
LOEL (M, Hematology_Mean corpuscular hemoglobin concentration): 1000 mg/kg-day
LOEL (M, Hematology_Mean corpuscular volume): 250 mg/kg-day
LOEL (M, Hematology_Platelets): 500 mg/kg-day
LOEL (M, Hematology_Reticulocytes): 500 mg/kg-day
NOEL (M, Nonneoplastic effects_Bone marrow - Hypocellularity): 1000 mg/kg-day
NOEL (M, Nonneoplastic effects_Epididymis - Duct, exfoliated germ cell): 1000 mg/kg-day
NOEL (M, Nonneoplastic effects_Epididymis - Epithelium, apoptosis): 1000 mg/kg-day
NOEL (M, Nonneoplastic effects_Epididymis - Hypospermia): 1000 mg/kg-day
NOEL (M, Nonneoplastic effects_Forestomach - Epithelium, hyperplasia): 1000 mg/kg-day
NOEL (M, Nonneoplastic effects_Forestomach - Inflammation, chronic active): 1000 mg/kg-day
NOEL (M, Nonneoplastic effects_Kidney - Nephropathy, chronic progressive): 1000 mg/kg-day
NOEL (M, Nonneoplastic effects_Liver - Hepatocyte, Necrosis): 1000 mg/kg-day
LOEL (M, Nonneoplastic effects_Liver - Hepatocyte, cytoplasmic alteration): 1000 mg/kg-day
LOEL (M, Nonneoplastic effects_Liver - Hepatocyte, hypertrophy): 500 mg/kg-day
NOEL (M, Nonneoplastic effects_Liver - Hepatocyte, vacuolization cytoplasmic): 1000 mg/kg-day
NOEL (M, Nonneoplastic effects_Lymph nodes - Mandibular, atrophy): 1000 mg/kg-day
NOEL (M, Nonneoplastic effects_Lymph nodes - Mesenteric, atrophy): 1000 mg/kg-day
LOEL (M, Nonneoplastic effects_Nose - Olfactory epithelium, degeneration): 250 mg/kg-day
LOEL (M, Nonneoplastic effects_Nose - Olfactory epithelium, hyperplasia): 250 mg/kg-day
LOEL (M, Nonneoplastic effects_Nose - Olfactory epithelium, inflammation, suppurative): 1000 mg/kg-day
NOEL (M, Nonneoplastic effects_Nose - Respiratory epithelium, hyperplasia): 1000 mg/kg-day
NOEL (M, Nonneoplastic effects_Nose - Respiratory epithelium, inflammation, chronic active): 1000 mg/kg-day
NOEL (M, Nonneoplastic effects_Spleen - Atrophy): 1000 mg/kg-day
LOEL (M, Nonneoplastic effects_Spleen - Extramedullary hematopoiesis, increased): 500 mg/kg-day
NOEL (M, Nonneoplastic effects_Testes - Germinal epithelium, degeneration): 1000 mg/kg-day
NOEL (M, Nonneoplastic effects_Testes - Interstitial cell, atrophy): 1000 mg/kg-day
NOEL (M, Nonneoplastic effects_Testes - Seminiferous tubule, spermatid retention): 1000 mg/kg-day
NOEL (M, Nonneoplastic effects_Thymus - Atrophy): 1000 mg/kg-day
NOEL (M, Nonneoplastic effects_Thymus - Lymphocyte, apoptosis): 1000 mg/kg-day
NOEL (M, Nonneoplastic effects_Thyroid gland - Follicular cell hypertrophy): 1000 mg/kg-day
LOEL (M, Organ weights_Liver - Absolute): 500 mg/kg-day
LOEL (M, Organ weights_Liver - Relative): 250 mg/kg-day
NOEL (M, Organ weights_R. adrenal gland - Absolute): 1000 mg/kg-day
NOEL (M, Organ weights_R. adrenal gland - Relative): 1000 mg/kg-day
NOEL (M, Organ weights_R. kidney - Absolute): 1000 mg/kg-day
LOEL (M, Organ weights_R. kidney - Relative): 500 mg/kg-day
NOEL (M, Organ weights_R. testis - Absolute): 1000 mg/kg-day
NOEL (M, Organ weights_Spleen - Absolute): 1000 mg/kg-day
NOEL (M, Organ weights_Spleen - Relative): 1000 mg/kg-day
LOEL (M, Organ weights_Thymus - Absolute): 1000 mg/kg-day
NOEL (M, Organ weights_Thymus - Relative): 1000 mg/kg-day
NOEL (M, Organ weights_Thyroid gland - Absolute): 1000 mg/kg-day
NOEL (M, Organ weights_Thyroid gland - Relative): 1000 mg/kg-day
LOEL (M, Reproductive toxicity_Altered sperm parameters): 1000 mg/kg-day
NOEL (M, Survival rates): 1000 mg/kg-day
LOEL (M, body weight): 1000 mg/kg-day
